Assay results reported in ChEMBL document CHEMBL6182831, “Thiazole-fused androstenone and ethisterone derivatives: potent β- and γ-actin cytoskeleton inhibitors to treat melanoma tumors” (RSC Med Chem, 2025).
pIC50: −log10 of the molar value. The source made the active and inactive calls.

Legend:
LOX IMVI [1] = experiment: Cytotoxicity against human LOX IMVI cells assessed as inhibition of cell growth incubated for 24 hrs by resazurin staining based analysis; type: functional
[2] = Toxicity in C57BL/6 mouse assessed as change in total bilirubin level at 40 mg/kg, ip administered once daily and measured up to 20 days; type: organism-based; conditions: in vivo, 480 h, time < 20 day
SK-MEL-28 [3] = experiment: Effect on ACTB mRNA expression in human SK-MEL-28 cells at 2 uM measured after 24 hrs by qRT-PCR analysis; type: functional, cell-based
SK-MEL-28 [4] = experiment: Effect on ACTG1 mRNA expression in human SK-MEL-28 cells at 2 uM measured after 24 hrs by qRT-PCR analysis; type: functional, cell-based
B16-F10 [5] = experiment: Inhibition of colony formation in mouse B16-F10 cells at 3 uM incubated for 6 days by crystal violet staining based analysis; type: functional; conditions: B16-F10, 144 h, time 6 day
B16-F10 [6] = experiment: Induction of apoptosis in mouse B16-F10 cells at 8 uM measured for 24 hrs by Annexin V FITC/PI staining based flow cytometry analysis; type: functional, cell-based
[7] = Toxicity in C57BL/6 mouse assessed as change in BUN level at 40 mg/kg, ip administered once daily and measured up to 20 days; type: organism-based; conditions: in vivo, 480 h, time < 20 day
SK-MEL-28 [8] = experiment: Downregulation of ACTB level in human SK-MEL-28 cells at 2 uM measured for 24 hrs by qRT-PCR analysis; type: functional, cell-based
B16-F10 [9] = experiment: Induction of cell cycle arrest in mouse B16-F10 cells assessed as accumulation of cells at G2/M phase at 3 uM incubated for 24 hrs by PI staining based flow cytometry analysis; type: functional
SK-MEL-25 = experiment: Cytotoxicity against human SK-MEL-25 cells assessed as inhibition of cell growth incubated for 24 hrs by resazurin staining based analysis; type: functional; conditions: SK-MEL-25, 24 h
B16-F10 [10] = experiment: Antitumor activity against mouse B16-F10 cells implanted in C57BL/6 mouse assessed as reduction of tumor weight at 40 mg/kg, ip administered once daily from 6 to 9 days and every alternate days till 18; type: functional, organism-based; conditions: time 13.0 day
[11] = Toxicity in C57BL/6 mouse assessed as animal survival at 40 mg/kg, ip administered once daily from 6 to 9 days and every alternate days till 18; type: organism-based; conditions: in vivo, time 13 day
[12] = Toxicity in C57BL/6 mouse assessed as change in body weight at 40 mg/kg, ip administered once daily and measured up to 20 days; type: organism-based; conditions: in vivo, 480 h, time < 20 day
B16-F10 [13] = experiment: Inhibition of colony formation in mouse B16-F10 cells at 6 uM incubated for 6 days by crystal violet staining based analysis; type: functional; conditions: B16-F10, 144 h, time 6 day
[14] = Toxicity in C57BL/6 mouse assessed as change in ALT level at 40 mg/kg, ip administered once daily and measured up to 20 days; type: organism-based; conditions: in vivo, 480 h, time < 20 day
[15] = Toxicity in C57BL/6 mouse assessed as change in creatinine level at 40 mg/kg, ip administered once daily and measured up to 20 days; type: organism-based; conditions: in vivo, 480 h, time < 20 day
[16] = Toxicity in C57BL/6 mouse assessed as animal survival at 40 mg/kg, ip administered once daily from 6 to 9 days and every alternate days till 19; type: organism-based; conditions: in vivo, time 14 day
B16-F10 [17] = experiment: Inhibition of cell adhesion in mouse B16-F10 cells at 2.5 uM incubated for 1.5 hrs; type: functional, cell-based
SK-MEL-28 [18] = experiment: Inhibition of cell migration in human SK-MEL-28 cells at 1.2 uM incubated for 24 hrs by wound healing assay; type: functional, cell-based
SK-MEL-28 [19] = experiment: Effect on ACTG1 level in human SK-MEL-28 cells at 2 uM measured after 24 hrs by Western blot analysis; type: functional, cell-based
B16-F10 [20] = experiment: Inhibition of cell adhesion in mouse B16-F10 cells assessed as reduction in number of adherent cells incubated for 1.5 hrs; type: functional, cell-based
LOX IMVI [21] = experiment: Upregulation of PARVB mRNA expression in human LOX IMVI cells at 2 uM measured for 2 hrs by qPCR analysis; type: functional, cell-based
B16-F10 [22] = experiment: Antitumor activity against mouse B16-F10 cells implanted in C57BL/6 mouse assessed as reduction of tumor weight at 40 mg/kg, ip administered once daily from 6 to 12 days and every alternate days till 18; type: functional, organism-based; conditions: time 13.0 day
SK-MEL-28 [23] = experiment: Upregulation of PARVB mRNA expression in human SK-MEL-28 cells at 2 uM measured for 2 hrs by qPCR analysis; type: functional, cell-based
SK-MEL-5 = experiment: Cytotoxicity against human SK-MEL-5 cells assessed as inhibition of cell growth incubated for 24 hrs by resazurin staining based analysis; type: functional; conditions: SK-MEL-5, 24 h
[24] = Toxicity in C57BL/6 mouse assessed as change in ALP level at 40 mg/kg, ip administered once daily and measured up to 20 days; type: organism-based; conditions: in vivo, 480 h, time < 20 day
SK-MEL-28 [25] = experiment: Effect on PARVB level in human SK-MEL-28 cells at 2 uM measured after 24 hrs by Western blot analysis; type: functional, cell-based
B16-F10 [26] = experiment: Antitumor activity against mouse B16-F10 cells implanted in C57BL/6 mouse assessed as inhibition of tumor growth at 40 mg/kg, ip administered once daily from 6 to 9 days and every alternate days till 18; type: functional, organism-based; conditions: time 13.0 day
B16-F10 [27] = experiment: Inhibition of cell migration in mouse B16-F10 cells at 2 uM incubated for 24 hrs by wound healing assay; type: functional, cell-based
[28] = Toxicity in C57BL/6 mouse assessed as change in albumin level at 40 mg/kg, ip administered once daily and measured up to 20 days; type: organism-based; conditions: in vivo, 480 h, time < 20 day
[29] = Toxicity in C57BL/6 mouse assessed as change in amylase level at 40 mg/kg, ip administered once daily and measured up to 20 days; type: organism-based; conditions: in vivo, 480 h, time < 20 day
SK-MEL-28 [30] = experiment: Induction of cell cycle arrest in human SK-MEL-28 cells assessed as accumulation of cells at G2/M phase at 3 uM incubated for 24 hrs by PI staining based flow cytometry analysis; type: functional
SK-MEL-28 [31] = experiment: Inhibition of cell adhesion in human SK-MEL-28 cells assessed as reduction in number of adherent cells incubated for 1.5 hrs; type: functional, cell-based
B16-F10 [32] = experiment: Cytotoxicity against mouse B16-F10 cells assessed as inhibition of cell growth incubated for 24 hrs by resazurin staining based analysis; type: functional; conditions: B16-F10, 24 h
SK-MEL-28 [33] = experiment: Cytotoxicity against human SK-MEL-28 cells assessed as inhibition of cell growth incubated for 24 hrs by resazurin staining based analysis; type: functional; conditions: SK-MEL-28, 24 h
SK-MEL-28 [34] = experiment: Effect on ACTB level in human SK-MEL-28 cells at 2 uM measured after 24 hrs by Western blot analysis; type: functional, cell-based
SK-MEL-28 [35] = experiment: Inhibition of cell adhesion in human SK-MEL-28 cells at 2.5 uM incubated for 1.5 hrs; type: functional, cell-based
B16-F10 [36] = experiment: Inhibition of cell adhesion in mouse B16-F10 cells at 1.5 uM incubated for 1.5 hrs; type: functional, cell-based
SK-MEL-28 [37] = experiment: Inhibition of colony formation in human SK-MEL-28 cells at 6 uM incubated for 8 days by crystal violet staining based analysis; type: functional; conditions: SK-MEL-28, 192 h, time 8 day
SK-MEL-28 [38] = experiment: Inhibition of colony formation in human SK-MEL-28 cells at 3 uM incubated for 6 days by crystal violet staining based analysis; type: functional; conditions: SK-MEL-28, 144 h, time 6 day
SK-MEL-28 [39] = experiment: Inhibition of colony formation in human SK-MEL-28 cells at 3 uM incubated for 8 days by crystal violet staining based analysis; type: functional; conditions: SK-MEL-28, 192 h, time 8 day
SK-MEL-28 [40] = experiment: Inhibition of cell adhesion in human SK-MEL-28 cells at 1.5 uM incubated for 1.5 hrs; type: functional, cell-based
SK-MEL-28 [41] = experiment: Inhibition of colony formation in human SK-MEL-28 cells at 6 uM incubated for 6 days by crystal violet staining based analysis; type: functional; conditions: SK-MEL-28, 144 h, time 6 day
SK-MEL-28 [42] = experiment: Inhibition of cell migration in human SK-MEL-28 cells at 1 uM incubated for 24 hrs by wound healing assay; type: functional, cell-based

C#C[C@]1(O)CC[C@H]2[C@@H]3CC=C4c5sc(-c6ccc(O)c(O)c6)nc5CC[C@]4(C)[C@H]3CC[C@@]21C
5.60: pIC50 (SK-MEL-25)
100%: inhibition at 3 µM (B16-F10 [5]) | inhibition at 6 µM (B16-F10 [13])
active: Activity (SK-MEL-28 [3]) | Activity (SK-MEL-28 [4]) | Activity (B16-F10 [6]) | Activity (SK-MEL-28 [8]) | Activity (B16-F10 [9]) | Activity (B16-F10 [10]) | inhibition (B16-F10 [17]) | inhibition (SK-MEL-28 [18]) | Activity (SK-MEL-28 [19]) | inhibition (B16-F10 [20]) | Activity (LOX IMVI [21]) | Activity (B16-F10 [22]) | Activity (SK-MEL-28 [23]) | Activity (SK-MEL-28 [25]) | TGI (B16-F10 [26]) | inhibition (B16-F10 [27]) | Activity (SK-MEL-28 [30]) | inhibition (SK-MEL-28 [31]) | Activity (SK-MEL-28 [34]) | inhibition (SK-MEL-28 [35])
5.59: pIC50 (B16-F10 [32])
5.43: pIC50 (SK-MEL-5)
5.36: pIC50 (LOX IMVI [1])
Non-toxic: Activity [2] | Activity [7] | Activity [12] | Activity [14] | Activity [15] | Activity [24] | Activity [28] | Activity [29]
~80%: survival at 312 h [11]
5.44: pIC50 (SK-MEL-28 [33])
80%: survival at 336 h [16]

C#C[C@]1(O)CC[C@H]2[C@@H]3CC=C4c5sc(Nc6ccc(F)cc6F)nc5CC[C@]4(C)[C@H]3CC[C@@]21C
100%: inhibition at 3 µM (B16-F10 [5]) | inhibition at 6 µM (SK-MEL-28 [37]) | inhibition at 6 µM (B16-F10 [13]) | inhibition at 3 µM (SK-MEL-28 [38]) | inhibition at 3 µM (SK-MEL-28 [39]) | inhibition at 6 µM (SK-MEL-28 [41])
5.80: pIC50 (LOX IMVI [1])
5.72: pIC50 (SK-MEL-5)
5.62: pIC50 (SK-MEL-25)
5.74: pIC50 (SK-MEL-28 [33])
5.60: pIC50 (B16-F10 [32])
active: inhibition (B16-F10 [36]) | Activity (B16-F10 [6]) | Activity (SK-MEL-28 [8]) | Activity (B16-F10 [10]) | inhibition (B16-F10 [20]) | TGI (B16-F10 [26]) | inhibition (SK-MEL-28 [40]) | inhibition (B16-F10 [27]) | Activity (SK-MEL-28 [30]) | inhibition (SK-MEL-28 [31]) | inhibition (SK-MEL-28 [42])
